Measured values as given in PubChem BioAssay AID256 (DTP/NCI, 2004).
Toxic doses and inconclusive results are not listed. How the source made its calls: active means survival T/C of 150% or more; inactive means T/C below 125% in these data.

Tested on: CD2F1 mice, L1210 leukemia ip, survival T/C
Assay: NCI In Vivo Anticancer Drug Screen. Data for tumor model L1210 Leukemia (intraperitoneal) in CD2F1 (CDF1) mice
Conditions: higher = longer survival
Method in brief: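 Antitumor effect is scored in animals hosting a serially transplanted tumor. Values compare compound-dosed animals against vehicle-only controls as a simple quotient.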

[1] = endpoint: mean survival time, dose: 100.0 mg/kg/injection, schedule: Q04DX003 (ip), vehicle: saline with Tween-80
[2] = endpoint: mean survival time, dose: 200.0 mg/kg/injection, schedule: Q04DX003 (ip), vehicle: saline with Tween-80
[3] = endpoint: mean survival time, dose: 400.0 mg/kg/injection, schedule: Q04DX003 (ip), vehicle: saline with Tween-80
[4] = endpoint: mean survival time, dose: 100.0 mg/kg/injection, schedule: Q01DX001 (ip), vehicle: saline with Tween-80
[5] = endpoint: mean survival time, dose: 200.0 mg/kg/injection, schedule: Q01DX001 (ip), vehicle: saline with Tween-80
[6] = endpoint: mean survival time, dose: 400.0 mg/kg/injection, schedule: Q01DX001 (ip), vehicle: saline with Tween-80
[7] = endpoint: mean survival time, dose: 100.0 mg/kg/injection, schedule: Q04DX002 (ip), vehicle: saline with Tween-80
[8] = endpoint: mean survival time, dose: 200.0 mg/kg/injection, schedule: Q04DX002 (ip), vehicle: saline with Tween-80

Measured: T/C

c1ccc(COCc2ccccc2Cn2ccnc2)cc1
inactive: endpoint: mean survival time, dose: 10.0 mg/kg/injection, schedule: Q04DX003 (ip), vehicle: saline 120 % of control | endpoint: mean survival time, dose: 20.0 mg/kg/injection, schedule: Q04DX003 (ip), vehicle: saline 101 % of control | endpoint: mean survival time, dose: 40.0 mg/kg/injection, schedule: Q04DX003 (ip), vehicle: saline 95 % of control

CNC(=O)Sc1nnnc2ccccc12
inactive: [1] 101 % of control | [2] 93 % of control | [3] 98 % of control

CC1(c2ccc(O)cc2)OCCCC1([NH-])C[NH-].[Cl][Pt+2][Cl] (stereo not drawn)
inactive: endpoint: median survival time, dose: 10.0 mg/kg/injection, schedule: Q04DX003 (ip), vehicle: saline 110 % of control | endpoint: median survival time, dose: 20.0 mg/kg/injection, schedule: Q04DX003 (ip), vehicle: saline 106 % of control | endpoint: median survival time, dose: 40.0 mg/kg/injection, schedule: Q04DX003 (ip), vehicle: saline 100 % of control | endpoint: median survival time, dose: 80.0 mg/kg/injection, schedule: Q04DX003 (ip), vehicle: saline with Tween-80 107 % of control | endpoint: median survival time, dose: 80.0 mg/kg/injection, schedule: Q04DX003 (ip), vehicle: saline 103 % of control | endpoint: median survival time, dose: 160.0 mg/kg/injection, schedule: Q04DX003 (ip), vehicle: saline with Tween-80 107 % of control | endpoint: median survival time, dose: 320.0 mg/kg/injection, schedule: Q04DX003 (ip), vehicle: saline with Tween-80 107 % of control

Cc1ccc(S(=O)(=O)N(CCCc2c(C)nc(N)nc2Cl)c2ccccc2)cc1
inactive: endpoint: mean survival time, dose: 50.0 mg/kg/injection, schedule: Q01DX001 (ip), vehicle: Klucel (hydroxypropylcellulose) (HPC) 100 % of control | endpoint: mean survival time, dose: 100.0 mg/kg/injection, schedule: Q01DX001 (ip), vehicle: Klucel (hydroxypropylcellulose) (HPC) 104 % of control | endpoint: mean survival time, dose: 200.0 mg/kg/injection, schedule: Q01DX001 (ip), vehicle: Klucel (hydroxypropylcellulose) (HPC) 96 % of control

COc1cccc(CC(C)N)c1OC (stereo not drawn)
inactive: endpoint: mean survival time, dose: 25.0 mg/kg/injection, schedule: Q01DX009 (ip), vehicle: saline 98 % of control | endpoint: mean survival time, dose: 50.0 mg/kg/injection, schedule: Q01DX009 (ip), vehicle: saline 95 % of control | endpoint: mean survival time, dose: 100.0 mg/kg/injection, schedule: Q01DX009 (ip), vehicle: saline 93 % of control | [1] 95 % of control

Cc1ccccc1N=Nc1ccccc1
inactive: [4] 104 % of control | [5] 96 % of control | [6] 101 % of control

COc1cc(/C=C/c2ccccn2)cc(OC)c1OC
inactive: [1] 101 % of control | [2] 91 % of control

CC(=O)OCC1OC(OC(C)=O)C([NH-])C(OC(C)=O)C1OC(C)=O.CC(=O)OCC1OC(OC(C)=O)C([NH-])C(OC(C)=O)C1OC(C)=O.[Cl][Pt+2][Cl] (stereo not drawn)
inactive: endpoint: mean survival time, dose: 12.5 mg/kg/injection, schedule: Q04DX003 (ip), vehicle: saline 98 % of control | endpoint: mean survival time, dose: 25.0 mg/kg/injection, schedule: Q04DX003 (ip), vehicle: saline 93 % of control | endpoint: mean survival time, dose: 50.0 mg/kg/injection, schedule: Q04DX003 (ip), vehicle: saline 95 % of control | endpoint: mean survival time, dose: 100.0 mg/kg/injection, schedule: Q04DX003 (ip), vehicle: saline 90 % of control | endpoint: mean survival time, dose: 200.0 mg/kg/injection, schedule: Q04DX003 (ip), vehicle: saline 95 % of control

COc1ncc(C2OC(CO)C(O)C2O)c(OC)n1 (stereo not drawn)
inactive: endpoint: mean survival time, dose: 25.0 mg/kg/injection, schedule: Q01DX009 (ip), vehicle: other 100 % of control | endpoint: mean survival time, dose: 50.0 mg/kg/injection, schedule: Q01DX009 (ip), vehicle: other 104 % of control | endpoint: mean survival time, dose: 100.0 mg/kg/injection, schedule: Q01DX009 (ip), vehicle: other 96 % of control | endpoint: mean survival time, dose: 200.0 mg/kg/injection, schedule: Q01DX009 (ip), vehicle: other 100 % of control | endpoint: mean survival time, dose: 400.0 mg/kg/injection, schedule: Q01DX009 (ip), vehicle: other 96 % of control

Cc1cc(=O)[nH]c2[nH]c(=O)ccc12
inactive: endpoint: mean survival time, dose: 100.0 mg/kg/injection, schedule: Q01DX001 (ip), vehicle: saline 100 % of control | endpoint: mean survival time, dose: 200.0 mg/kg/injection, schedule: Q01DX001 (ip), vehicle: saline 96 % of control | endpoint: mean survival time, dose: 400.0 mg/kg/injection, schedule: Q01DX001 (ip), vehicle: saline 96 % of control

CC1(CO)CCCC2(C)C3=CC(=O)CCC3CCC12 (stereo not drawn)
inactive: [4] 95 % of control | [5] 101 % of control | [6] 97 % of control

CCOC(=O)C1=C(C)NC(C)=C(C(=O)OCC)C1c1cccc([N+](=O)[O-])c1
inactive: endpoint: mean survival time, dose: 100.0 mg/kg/injection, schedule: Q01DX009 (ip), vehicle: Klucel (hydroxypropylcellulose) (HPC) 105 % of control | endpoint: mean survival time, dose: 200.0 mg/kg/injection, schedule: Q01DX009 (ip), vehicle: Klucel (hydroxypropylcellulose) (HPC) 91 % of control

CNC(=S)/N=c1/scc(C)n1C
inactive: [7] 91 % of control | [8] 91 % of control | endpoint: mean survival time, dose: 400.0 mg/kg/injection, schedule: Q04DX002 (ip), vehicle: saline with Tween-80 111 % of control

COC(=O)c1ccccc1C(=O)c1n[nH]c2ccccc12
inactive: endpoint: mean survival time, dose: 25.0 mg/kg/injection, schedule: Q04DX002 (ip), vehicle: saline with Tween-80 103 % of control | endpoint: mean survival time, dose: 50.0 mg/kg/injection, schedule: Q04DX002 (ip), vehicle: saline with Tween-80 106 % of control | [7] 106 % of control | [8] 106 % of control

Cn1c(CC(O)(C(F)(F)F)C(F)(F)F)cc(=O)n1-c1ccccc1
inactive: [1] 95 % of control | [2] 94 % of control

NC1=Nc2ccccc2CS1
inactive: endpoint: mean survival time, dose: 9.4 mg/kg/injection, schedule: Q01DX009 (ip), vehicle: saline 95 % of control | endpoint: mean survival time, dose: 18.8 mg/kg/injection, schedule: Q01DX009 (ip), vehicle: saline 107 % of control | endpoint: mean survival time, dose: 37.5 mg/kg/injection, schedule: Q01DX009 (ip), vehicle: saline 89 % of control | endpoint: mean survival time, dose: 75.0 mg/kg/injection, schedule: Q01DX001 (ip), vehicle: saline 98 % of control

CCOC(=O)/C(C#N)=C\c1cc([N+](=O)[O-])ccc1Cl
inactive: [1] 89 % of control | [2] 108 % of control | [3] 108 % of control

O=C(O)C(O)C(O)C1[O][Sb][O]C1C(=O)O (stereo not drawn)
inactive: endpoint: median survival time, dose: 6.25 mg/kg/injection, schedule: Q01DX009 (ip), vehicle: saline 93 % of control | endpoint: median survival time, dose: 12.5 mg/kg/injection, schedule: Q01DX009 (ip), vehicle: saline 102 % of control | endpoint: median survival time, dose: 25.0 mg/kg/injection, schedule: Q01DX009 (ip), vehicle: saline 95 % of control | endpoint: median survival time, dose: 50.0 mg/kg/injection, schedule: Q01DX009 (ip), vehicle: saline 98 % of control

O=C(Nc1ccccc1)c1ccccc1C1(O)c2ccccc2-c2ccccc21
inactive: endpoint: mean survival time, dose: 100.0 mg/kg/injection, schedule: Q01DX009 (ip), vehicle: saline with Tween-80 88 % of control | endpoint: mean survival time, dose: 200.0 mg/kg/injection, schedule: Q01DX009 (ip), vehicle: saline with Tween-80 92 % of control | endpoint: mean survival time, dose: 400.0 mg/kg/injection, schedule: Q01DX009 (ip), vehicle: saline with Tween-80 91 % of control

Nc1nc(-c2cccc([N+](=O)[O-])c2)c(N=Nc2ccccc2[N+](=O)[O-])s1
inactive: [4] 96 % of control | [6] 98 % of control
